Structures are written as SMILES.

Details in the first data set: not given
For orientation: melting point means the temperature, or range, at which the solid turns liquid. `Nc1nc(F)nc2c1ncn2[C@@H]1O[C@H](CO)[C@@H](O)[C@@H]1O` displayed a melting point of 260 °C.

Broadly, the boiling point is the temperature at which the vapour pressure of the liquid equals the pressure above it. With `Sc1ccccc1S`, the boiling point was found to be 238 °C and the melting point came out at 28.5 °C.

With `C#CC(C)(C)Cl`, the boiling point was 76 °C and the melting point is -61 °C.

`O=C1c2c(O)cccc2C(=O)C2C(O)=CC=CC12` (centres undefined) came in with a melting point of 280 °C.

`O=c1sc2ccccc2c(O)c1C1CC(c2ccc(-c3ccc(Br)cc3)cc2)Cc2ccccc21` (centres undefined) showed a melting point of 234 °C.

Regarding `CCNC=O`, the boiling point is 198 °C.

As for `COc1cc(O)cc(OC)c1`, the melting point worked out at 37 °C.

As for `C=CC(=O)OCCN(CC)CC`, the melting point is -60 °C.

For `Cc1cccc(C)c1`, the boiling point was found to be 139 °C, the log10 Henry constant (atm·m³/mol) was -2.14, the log10 Koa is 3.78 and the log10 Koc (L/kg) amounted to 2.25. For the same compound, the log10 biodegradation half-life (days) came out at 1, the log10 vapour pressure (mmHg) is 0.919, the melting point is -47.8 °C and the ready biodegradability entry is on record as “readily biodegradable”.

For the compound `CCC(Br)(CC)C(=O)NC(N)=O`, the melting point worked out at 118 °C.

Compound `CC(=O)C(C)CO` (centres undefined) registered a log10 vapour pressure (mmHg) of -0.646.

In turn, `COc1ccc(C(=O)CC(=O)c2ccc(C(C)(C)C)cc2)cc1` registered a melting point of 83.5 °C.

As to `CCC(C)(CC)c1cc(NC(=O)c2c(OC)cccc2OC)on1`, the log10 Koc (L/kg) was 2.4, the log10 vapour pressure (mmHg) is -8.38 and the melting point was 178 °C.

With `CC(=O)C(N=Nc1ccc(-c2ccc(N=NC(C(C)=O)C(=O)Nc3ccccc3C)c(Cl)c2)cc1Cl)C(=O)Nc1ccccc1C` (centres undefined), the ready biodegradability result is given as “not readily biodegradable”.

As to `C=CCn1c(N)cc(=O)n(CC)c1=O`, the melting point was determined as 143 °C.

Regarding `CCCC(C)(C)CC`, the boiling point was determined as 112 °C, the log10 biodegradation half-life (days) was determined as 0.699, the log10 vapour pressure (mmHg) stood at 1.46 and the melting point was -126 °C.

The compound `Clc1ccc2ccc(Cl)cc2c1` registered a log10 Koa of 6.7.

`Nc1c(O)cccc1[N+](=O)[O-]`: the melting point was determined as 216 °C.

`CN(C)C(=O)Nc1cccc(C(F)(F)F)c1` showed a log10 Koc (L/kg) of 1.9, a log10 vapour pressure (mmHg) of -6.03 and a melting point of 164 °C.

`BrCCC1CCCCC1` came in with a boiling point of 212 °C and a melting point of -57 °C.

Compound `Nc1ccc(C(=O)N[C@@H](CCC(=O)O)C(=O)O)cc1` displayed a melting point of 173 °C.

For `FC(F)(F)SSC(F)(F)F`, the boiling point came out at 34.6 °C.

`CCCCCCCCCCCCCCCCCCC`: the boiling point turned out to be 330 °C, the log10 biodegradation half-life (days) worked out at 1.26, the log10 vapour pressure (mmHg) was -4.31 and the melting point came to 32.1 °C. Further, the ready biodegradability entry is “readily biodegradable”.

In the case of `CN(C(=O)C(Cl)Cl)c1ccc(O)cc1`, the melting point was found to be 175 °C.

Compound `ClCCCCCl` came in with a boiling point of 161 °C, a log10 Henry constant (atm·m³/mol) of -3.31, a log10 vapour pressure (mmHg) of 0.616 and a melting point of -37.3 °C. In addition, the ready biodegradability result was “not readily biodegradable”.

Compound `C[C@](N)(Cc1ccc(O)cc1)C(=O)O` yielded a melting point of 312 °C.

Consider `CC(C)COCC(C)O` (centres undefined), for which the boiling point was 165 °C and the log10 vapour pressure (mmHg) was 0.114.

With `O=C(O)c1cc(F)c(F)cc1F`, the melting point was 100 °C.

Regarding `CN(C)P(=O)(N(C)C)N(C)C`, the boiling point was 232 °C, the log10 vapour pressure (mmHg) is -1.34, the melting point turned out to be 7.2 °C and the ready biodegradability entry is “not readily biodegradable”.

For `O=C(OC1CCCCC1)c1ccccc1C(=O)OC1CCCCC1`, the log10 vapour pressure (mmHg) was -6.06, the melting point was determined as 66 °C and the ready biodegradability entry was “readily biodegradable”.

The compound `CC(C)CC[N+](=O)[O-]` had a boiling point of 164 °C and a melting point of 97 °C.

For `N#Cc1ccccc1Cl`, the boiling point was found to be 232 °C, the melting point was found to be 46.3 °C and the ready biodegradability result is “not readily biodegradable”.

`Nc1ccncn1` showed a melting point of 155 °C.

Regarding `Nc1ccccc1C(=O)OCC=Cc1ccccc1`, the melting point came to 61 °C.

`O=c1cnn([C@@H]2O[C@H](CO)[C@@H](O)[C@H]2O)c(=O)[nH]1` yielded a melting point of 158 °C.

On to `C[C@@H]1CC[C@H]2[C@@H]1[C@H]1[C@@H](CC[C@@]2(C)O)C1(C)C`, for which the boiling point amounted to 292 °C and the melting point turned out to be 105 °C.

Take `O=[N+]([O-])c1ccc(O[C@@H]2O[C@H](CO)[C@H](O)[C@H](O)[C@H]2O)cc1`: the melting point was 189 °C.

In the case of `Clc1ccccc1C1CO1` (centres undefined), the ready biodegradability entry is given as “not readily biodegradable”.

With `CCC(CC)Nc1c([N+](=O)[O-])cc(C)c(C)c1[N+](=O)[O-]`, the boiling point was 330 °C, the log10 Koc (L/kg) was 3.7, the log10 vapour pressure (mmHg) is -4.52 and the melting point was 56 °C.

Turning to `CC(=O)OCC(=O)[C@H]1CC[C@H]2[C@@H]3CCC4=CC(=O)CC[C@]4(C)[C@H]3CC[C@]12C`, the melting point was 157 °C.

For `Clc1ccccn1`, the boiling point was 170 °C, the log10 vapour pressure (mmHg) turned out to be 0.338, the melting point was -46.5 °C and the ready biodegradability result is listed as “not readily biodegradable”.

As for `CC#CC`, the boiling point was 26.9 °C, the log10 vapour pressure (mmHg) is 2.85, the melting point is -32.3 °C and the ready biodegradability entry is reported as “not readily biodegradable”.

Take `Cc1cc(C(C)(C)C)ccc1O`: the boiling point came to 237 °C, the log10 vapour pressure (mmHg) is -1.55 and the melting point came out at 27.5 °C.

For `OCC1CCC(CO)CC1` (centres undefined), the boiling point was determined as 285 °C, the log10 vapour pressure (mmHg) is -3.51 and the melting point worked out at 51 °C.

Regarding `COC(=O)Nc1ccc(Cl)c(Cl)c1`, the log10 Koc (L/kg) is 2.74.

As to `c1ccc(-c2nc3ccccc3o2)cc1`, the melting point is 103 °C.

Compound `CC=Cc1ccccc1` showed a boiling point of 177 °C and a melting point of -28.2 °C.

Compound `Clc1ccc(-c2c(Cl)cc(Cl)c(Cl)c2Cl)cc1Cl` returned a melting point of 107 °C.

In turn, `O=[N+]([O-])c1ccc(Nc2ccccc2)c([N+](=O)[O-])c1` showed a log10 vapour pressure (mmHg) of -8.52 and a melting point of 159 °C.

As to `O=C(Nc1ccc2ncccc2c1)Nc1ccc2ncccc2c1`, the melting point came out at 262 °C.

As for `Clc1cc(Cl)c2c(c1)Oc1cc(Cl)c(Cl)cc1O2`, the log10 vapour pressure (mmHg) was -8.2 and the melting point is 194 °C.

In the case of `CCCCCCCCCCCC(CCCCCCCC)c1ccccc1` (centres undefined), the melting point worked out at 17.9 °C.

`CCc1ssc(=O)c1-c1ccccc1` came in with a melting point of 82 °C.

Consider `CCCCCCCCCCCCCCCCCCCc1ccccc1`, for which the boiling point was determined as 419 °C and the melting point came out at 40 °C.

For the compound `C[C@H]1C[C@H]1C(=O)O`, the boiling point turned out to be 191 °C.

In turn, `O=c1[nH]c2ccccc2n1CCCN1CCN(C(c2ccccc2)c2ccccc2)CC1` displayed a melting point of 154 °C.

Regarding `CCCCCCCCC=CCCCCCCCC(=O)OCC(O)C1OCC(O)C1O` (centres undefined), the ready biodegradability result is given as “readily biodegradable”.

Compound `Cc1c(CN2CCOC(c3ccccc3)C2C)c(=O)n(-c2ccccc2)n1C` (centres undefined) came in with a melting point of 150 °C.

As for `CCOC(=O)CCC(=O)O`, the melting point stood at 8 °C.

`CC(C)(CC(=O)O)c1ccccc1` showed a melting point of 60 °C.

`CCCC(C)(C)c1ccccc1` yielded a boiling point of 206 °C.

`C[Si](C)(C)O[Si](C)(C)O[Si](C)(C)C` showed a boiling point of 153 °C, a log10 Henry constant (atm·m³/mol) of 1.49, a log10 vapour pressure (mmHg) of 0.524 and a melting point of -80 °C.

`CNC1CCCCC1` returned a boiling point of 147 °C.

The compound `CCCC(C)(C)C(C)CC` (centres undefined) yielded a boiling point of 161 °C.

As for `O=C(NC(=O)c1c(F)cccc1F)Nc1ccc(CO/N=C(\c2ccc(Cl)cc2)C2CC2)cc1`, the melting point came out at 144 °C.

Turning to `CCOC(=O)NNC(=O)OCC`, the melting point turned out to be 135 °C.

`c1ccc(-c2cccc(-c3ccccn3)n2)nc1`: the melting point is 90 °C.

As to `N#Cc1cccc(O)c1`, the melting point was 80 °C.

Consider `CCCCCCCCCCc1ccc(N)cc1`, for which the melting point worked out at 25 °C.

With `O=C(O)c1cccc2ccccc12`, the ready biodegradability result is on record as “not readily biodegradable”.

As for `OCCc1ccc(O)cc1`, the melting point is 90 °C.

For the compound `CC12CCC(CC1=O)C2(C)C` (centres undefined), the boiling point was determined as 206 °C, the log10 vapour pressure (mmHg) was -0.665, the melting point was 179 °C and the ready biodegradability result is “readily biodegradable”.

Consider `CCCSCCC`, for which the boiling point is 143 °C, the log10 Henry constant (atm·m³/mol) is -2.49, the log10 vapour pressure (mmHg) was 0.81 and the melting point was -102 °C.

The same data set, now with this note: fish.
`Cc1cccc(C)c1` returned a log10 BCF of 1.17.

`CN(C)P(=O)(N(C)C)N(C)C` registered a log10 BCF of -0.3.

`Clc1ccccn1` returned a log10 BCF of 1.28 and a log10 biotransformation half-life (days) of -0.85.

With `Clc1ccc(-c2c(Cl)cc(Cl)c(Cl)c2Cl)cc1Cl`, the log10 biotransformation half-life (days) amounted to 2.57.

For the origin of these results see the OPERA property sets (Mansouri et al. 2018).
